System: LMW-COMP fragment
Assay: LMW-COMP fragments in synovial fluid of treated arthritis patients
Assay type: in vivo, human
Details: strong anti-arthritic compound
Procedure: Twenty microliters of human synovial fluids were mixed 1:1 with SDS-PAGE loading buffer (NOVEX, San Diego, Calif.) containing 10% mercaptoethanol. The samples were boiled for 4 min. and […] applied per lane on a 14% or a 4-12% gradient SDS-PAGE Tris-Gly gel (Novex, Calif.). A separate set of these samples was also prepared for analysis under non-reducing conditions. Molecular weight markers were used to localize the molecular weight of unknowns. After electrophoresis, the samples were electrophoretically transferred onto a nitro-cellulose paper. The paper was treated with 2% bovine serum albumin (BSA) in 10 mM sodium phosphate, 0.15 M NaCl at […] (PBS) for 18 hours at 4° C.
The nitrocelluose paper was rinsed with PBS (10 mM sodium phosphate, 0.15 M NaCl at pH 7.2). […] The bound antibody was then detected using ECL or ECF substrate (Amersham Co.). The fragments were quantified using a Molecular Dynamics densitometer (Sunnyvale, Calif.). […]
A 96-well microtiter plate was coated with 0.1 ml/well of 50 ng/ml of antigen (synthetic peptide H741 without the N-terminal cysteine) in PBS for 48 to 72 h at 4° C. […] After 1 h at RT, the plate was washed 3-times with the ELISA wash buffer and the bound antibody detected by adding 100 μl/well of p-nitrophenyl phosphate substrate solution (Sigma, St. Louis, Mo.) and measuring optical density (OD) at 405 nm. […]

Row | SMILES | LMW-COMP fragment produced under treatment
1 | CN(Cc1cnc2nc(N)nc(N)c2n1)c1ccc(C(=O)N[C@@H](CCC(=O)O)C(=O)O)cc1 [methotrexate] | less
2 | CN1C(C(=O)Nc2ccccn2)=C(O)c2ccccc2S1(=O)=O [piroxicam] | less

From patent US6589755B1, “Assay for quantifying arthritic conditions” (Novartis AG, priority 1996, dated 2003)
